According to patent US10040781B2, “Tank-binding kinase inhibitor compounds” (Gilead Sciences, Inc., priority 2014, dated 2018):
Where two headings read alike, the source gives them in different places.

How the values were obtained:
IKKε = IKKε (Homo sapiens (Human), UniProt Q14164); assay: IKKε TR-FRET enzymatic assay; type: biochemical; conditions: read-out: IKKe IC50
hJAK2 = hJAK2 (Homo sapiens (Human), UniProt O60674); assay: hJAK2 LANCE TR-FRET enzymatic assay; type: biochemical; conditions: read-out: JAK2 IC50
hJAK2, sequence (O60674 whole entry): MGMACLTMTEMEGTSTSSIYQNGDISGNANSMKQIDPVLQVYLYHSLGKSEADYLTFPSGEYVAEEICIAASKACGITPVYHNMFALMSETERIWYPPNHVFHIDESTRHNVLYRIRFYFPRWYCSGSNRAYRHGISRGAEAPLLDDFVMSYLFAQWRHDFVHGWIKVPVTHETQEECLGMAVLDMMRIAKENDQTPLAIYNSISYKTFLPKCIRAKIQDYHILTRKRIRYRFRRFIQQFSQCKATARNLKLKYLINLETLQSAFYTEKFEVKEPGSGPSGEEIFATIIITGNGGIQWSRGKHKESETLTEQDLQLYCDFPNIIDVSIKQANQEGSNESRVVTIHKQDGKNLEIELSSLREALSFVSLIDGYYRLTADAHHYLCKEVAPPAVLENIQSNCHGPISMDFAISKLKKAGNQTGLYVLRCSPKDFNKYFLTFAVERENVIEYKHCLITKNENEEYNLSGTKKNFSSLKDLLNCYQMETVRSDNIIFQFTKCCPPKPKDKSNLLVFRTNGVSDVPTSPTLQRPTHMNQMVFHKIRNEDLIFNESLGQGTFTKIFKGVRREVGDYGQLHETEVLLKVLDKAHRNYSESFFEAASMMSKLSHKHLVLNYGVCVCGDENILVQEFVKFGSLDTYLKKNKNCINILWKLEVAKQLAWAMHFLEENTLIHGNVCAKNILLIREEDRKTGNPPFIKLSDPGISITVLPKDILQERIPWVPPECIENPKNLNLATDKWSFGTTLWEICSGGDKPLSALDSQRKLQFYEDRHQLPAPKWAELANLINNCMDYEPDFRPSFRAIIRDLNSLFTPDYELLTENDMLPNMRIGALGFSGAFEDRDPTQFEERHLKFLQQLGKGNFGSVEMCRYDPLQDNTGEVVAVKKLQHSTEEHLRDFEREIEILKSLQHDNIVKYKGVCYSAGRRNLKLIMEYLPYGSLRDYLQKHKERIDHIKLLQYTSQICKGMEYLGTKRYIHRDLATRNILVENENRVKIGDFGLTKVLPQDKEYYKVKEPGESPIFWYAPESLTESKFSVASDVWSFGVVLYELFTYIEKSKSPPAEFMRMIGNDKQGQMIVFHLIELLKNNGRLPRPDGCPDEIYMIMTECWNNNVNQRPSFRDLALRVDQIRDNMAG

TBK1 = TBK1 (Homo sapiens (Human), UniProt Q9UHD2); assay: TBK1 TR-FRET enzymatic assay;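 also: phosphorylation of a biotinylated Ser/Thr peptide by purified full-length recombinant TBK1, read by TR-FRET after 240 min at 25 °C, IC50 is the geometric mean of at least four runs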
TBK1, sequence (Q9UHD2 whole entry): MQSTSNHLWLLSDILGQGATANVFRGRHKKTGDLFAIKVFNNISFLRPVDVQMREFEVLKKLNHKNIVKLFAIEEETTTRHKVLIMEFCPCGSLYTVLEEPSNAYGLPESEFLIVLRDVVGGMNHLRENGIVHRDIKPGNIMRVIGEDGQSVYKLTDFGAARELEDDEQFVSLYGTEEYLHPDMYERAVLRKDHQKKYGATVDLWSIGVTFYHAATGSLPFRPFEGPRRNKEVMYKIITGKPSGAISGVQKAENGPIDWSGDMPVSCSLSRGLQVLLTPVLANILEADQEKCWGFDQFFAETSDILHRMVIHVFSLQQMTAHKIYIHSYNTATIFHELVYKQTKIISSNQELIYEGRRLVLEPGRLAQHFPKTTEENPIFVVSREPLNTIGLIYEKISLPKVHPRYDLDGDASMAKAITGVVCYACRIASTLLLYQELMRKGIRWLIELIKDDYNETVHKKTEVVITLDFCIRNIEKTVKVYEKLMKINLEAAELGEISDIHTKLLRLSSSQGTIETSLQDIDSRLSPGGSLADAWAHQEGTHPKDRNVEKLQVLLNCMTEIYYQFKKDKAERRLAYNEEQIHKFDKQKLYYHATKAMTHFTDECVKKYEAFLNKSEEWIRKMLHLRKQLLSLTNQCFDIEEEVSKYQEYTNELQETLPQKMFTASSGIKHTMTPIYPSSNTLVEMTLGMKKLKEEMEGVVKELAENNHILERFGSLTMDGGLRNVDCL

[1] = TR-FRET, 2×Km ATP, geometric mean of minimum four determinations

IKKε, sequence (Q14164 whole entry): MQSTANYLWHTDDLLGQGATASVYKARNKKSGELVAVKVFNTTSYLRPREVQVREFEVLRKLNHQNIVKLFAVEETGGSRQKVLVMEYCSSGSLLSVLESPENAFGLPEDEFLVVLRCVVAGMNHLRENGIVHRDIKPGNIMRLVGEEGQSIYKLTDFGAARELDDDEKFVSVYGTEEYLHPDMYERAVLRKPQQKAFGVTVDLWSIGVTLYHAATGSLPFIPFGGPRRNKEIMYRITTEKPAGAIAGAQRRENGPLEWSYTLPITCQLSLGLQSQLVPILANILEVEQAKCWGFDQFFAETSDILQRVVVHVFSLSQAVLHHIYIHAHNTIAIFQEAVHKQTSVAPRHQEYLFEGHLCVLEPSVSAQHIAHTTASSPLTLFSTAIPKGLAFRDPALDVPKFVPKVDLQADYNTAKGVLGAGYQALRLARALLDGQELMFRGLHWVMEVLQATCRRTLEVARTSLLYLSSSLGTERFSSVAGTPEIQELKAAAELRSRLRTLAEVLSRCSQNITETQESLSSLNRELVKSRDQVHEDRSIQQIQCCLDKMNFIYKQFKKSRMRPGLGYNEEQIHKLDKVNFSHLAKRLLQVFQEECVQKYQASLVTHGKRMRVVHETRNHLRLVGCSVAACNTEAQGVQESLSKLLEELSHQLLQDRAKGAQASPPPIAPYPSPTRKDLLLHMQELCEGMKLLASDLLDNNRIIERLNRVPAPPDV

Row | Compound | IC50 (IKKε) [nM] | IC50 (hJAK2) [nM] | IC50 (TBK1) [nM] | IC50 (IKKε; [1]) [nM]
1 | N#Cc1cccc(-c2ncnc(Nc3ccc(N4CCN(C5COC5)CC4)cc3)n2)c1 [Example 215, 3-(4-((4-(4-(oxetan-3-yl)piperazin-1-yl)phenyl)amino)-1,3,5-triazin-2-yl)benzonitrile] | ≥ 1000 | 657 | 1000 | –
2 | COCC(=O)N1CC[C@H](Oc2ccc(-c3ncnc(Nc4ccc(C5CCN(C=O)CC5)c(C)c4)n3)cc2C#N)[C@H](F)C1 [Example 492, 2-(((3R,4S)-3-fluoro-1-(2-methoxyacetyl)piperidin-4-yl)oxy)-5-(4-((4-(1-formylpiperidin-4-yl)-3-methylphenyl)amino)-1,3,5-triazin-2-yl)benzonitrile] | – | 482 | 2 | 1
3 | N#Cc1cc(-c2ncnc(Nc3ccc(C4CCN(CC(F)F)CC4)cc3)n2)ccc1OC1CCOCC1 [Example 65, 5-(4-((4-(1-(2,2-difluoroethyl)piperidin-4-yl)phenyl)amino)-1,3,5-triazin-2-yl)-2-((tetrahydro-2H-pyran-4-yl)oxy)benzonitrile] | 11 | > 1000 | 4 | –
4 | CCn1cc(Nc2ncnc(-c3ccc(O[C@H]4CCN(C(=O)CO)C[C@H]4F)c(C#N)c3)n2)c(C)n1 [Example 569, 5-(4-((1-ethyl-3-methyl-1H-pyrazol-4-yl)amino)-1,3,5-triazin-2-yl)-2-(((3R,4S)-3-fluoro-1-(2-hydroxyacetyl)piperidin-4-yl)oxy)benzonitrile] | – | ≥ 1000 | 4 | 6
5 | C[C@H](O)C(=O)N1CC[C@H](Oc2ccc(-c3ncnc(Nc4ccc(N5CCO[C@@H](CO)C5)cc4)n3)cc2C#N)[C@H](F)C1 [Example 231, 2-(((3R,4S)-3-fluoro-1-((S)-2-hydroxypropanoyl)piperidin-4-yl)oxy)-5-(4-((4-((R)-2-(hydroxymethyl)morpholino)phenyl)amino)-1,3,5-triazin-2-yl)benzonitrile] | 1 | 486 | 3 | –
6 | N#Cc1cc(-c2ncnc(Nc3ccccc3)n2)ccc1OC1CCOCC1 [Example 79, 5-(4-(phenylamino)-1,3,5-triazin-2-yl)-2-((tetrahydro-2H-pyran-4-yl)oxy)benzonitrile] | 19 | > 1000 | 8 | –
7 | C[C@H](O)C(=O)N1CC[C@H](Oc2ccc(-c3ncnc(Nc4ccc(N5CCCOCC5)cc4)n3)cc2C#N)[C@H](F)C1 [Example 363, 5-(4-((4-(1,4-oxazepan-4-yl)phenyl)amino)-1,3,5-triazin-2-yl)-2-(((3R,4S)-3-fluoro-1-((S)-2-hydroxypropanoyl)piperidin-4-yl)oxy)benzonitrile] | 1 | 665 | 3 | –
8 | COC1CN(c2ccc(-c3ncnc(Nc4ccc(N5CCN(C6COC6)CC5)cc4)n3)cc2C#N)C1 [Example 269, 2-(3-methoxyazetidin-1-yl)-5-(4-((4-(4-(oxetan-3-yl)piperazin-1-yl)phenyl)amino)-1,3,5-triazin-2-yl)benzonitrile] | 25 | 219 | 13 | –
9 | CC(C)n1cc(Nc2ncnc(-c3ccc(O[C@H]4CCN(C(=O)CO)C[C@H]4F)c(C#N)c3)n2)cn1 [Example 349, 2-(((3R,4S)-3-fluoro-1-(2-hydroxyacetyl)piperidin-4-yl)oxy)-5-(4-((1-isopropyl-1H-pyrazol-4-yl)amino)-1,3,5-triazin-2-yl)benzonitrile] | 2 | 98 | 2 | –
10 | C[C@H](O)C(=O)N1CC[C@H](Oc2ccc(-c3ncnc(Nc4ccc(N5CC6(CCOCC6)C5)cc4)n3)cc2C#N)[C@H](F)C1 [Example 313, 5-(4-((4-(7-oxa-2-azaspiro[3.5]nonan-2-yl)phenyl)amino)-1,3,5-triazin-2-yl)-2-(((3R,4S)-3-fluoro-1-((S)-2-hydroxypropanoyl)piperidin-4-yl)oxy)benzonitrile] | 2 | 375 | 4 | –
11 | COc1cc(Nc2ncnc(-c3ccc(O[C@H]4CCN(C(=O)[C@@H]5CCC(=O)N5)C[C@H]4F)c(C#N)c3)n2)ccc1N1CCN(C2COC2)CC1 [Example 544, 2-(((3R,4S)-3-fluoro-1-((S)-5-oxopyrrolidine-2-carbonyl)piperidin-4-yl)oxy)-5-(4-((3-methoxy-4-(4-(oxetan-3-yl)piperazin-1-yl)phenyl)amino)-1,3,5-triazin-2-yl)benzonitrile] | – | 44 | 2 | 1
12 | CC1(COc2ccc(-c3ncnc(Nc4ccc(N5CCN(C6COC6)CC5)cc4)n3)cc2C#N)COC1 [Example 6, 2-((3-methyloxetan-3-yl)methoxy)-5-(4-((4-(4-(oxetan-3-yl)piperazin-1-yl)phenyl)amino)-1,3,5-triazin-2-yl)benzonitrile] | 20 | 178 | 7 | –
13 | C[C@H](O)C(=O)N1CC[C@H](Oc2ccc(-c3ncnc(Nc4ccc5c(c4)NC(=O)C5(C)C)n3)cc2C#N)[C@H](F)C1 [Example 385, 5-(4-((3,3-dimethyl-2-oxoindolin-6-yl)amino)-1,3,5-triazin-2-yl)-2-(((3R,4S)-3-fluoro-1-((8)-2-hydroxypropanoyl)piperidin-4-yl)oxy)benzonitrile] | 3 | 888 | 2 | –
14 | CCn1cc(Nc2ncnc(-c3ccc(O[C@H]4CCN(C(=O)[C@H](C)O)C[C@H]4F)c(C#N)c3)n2)cn1 [Example 351, 5-(4-((1-ethyl-1H-pyrazol-4-yl)amino)-1,3,5-triazin-2-yl)-2-(((3R,4S)-3-fluoro-1-((S)-2-hydroxypropanoyl)piperidin-4-yl)oxy)benzonitrile] | 9 | 662 | 6 | –
15 | CC1(C)CN(C(=O)CCO)C[C@@H](F)[C@H]1Oc1ccc(-c2ncnc(Nc3ccc(N4CCN(C5COC5)CC4)cc3)n2)cc1C#N [Example 443, 2-(((4S,5R)-5-fluoro-1-(3-hydroxypropanoyl)-3,3-dimethylpiperidin-4-yl)oxy)-5-(4-((4-(4-(oxetan-3-yl)piperazin-1-yl)phenyl)amino)-1,3,5-triazin-2-yl)benzonitrile] | – | 102 | 3 | 6

The remaining lines, values ahead:

Row | IC50 (IKKε) [nM] | IC50 (hJAK2) [nM] | IC50 (TBK1) [nM] | IC50 (IKKε; [1]) [nM] | Compound
16 | 126 | 626 | 44 | – | C[C@@H](O)C(=O)N1CCC(Oc2ccc(-c3ncnc(Nc4ccc(N5CCN(C6COC6)CC5)cc4)n3)cc2C#N)CC1 [Example 219, (R)-2-((1-(2-hydroxypropanoyl)piperidin-4-yl)oxy)-5-(4-((4-(4-(oxetan-3-yl)piperazin-1-yl)phenyl)amino)-1,3,5-triazin-2-yl)benzonitrile]
17 | 243 | > 1000 | 202 | – | CC(C)(O)C(=O)N1CCC(Oc2ccc(-c3ncnc(Nc4ccc(N5CCN(C6COC6)CC5)cc4)n3)cc2C#N)CC1 [Example 45, 2-((1-(2-hydroxy-2-methylpropanoyl)piperidin-4-yl)oxy)-5-(4-((4-(4-(oxetan-3-yl)piperazin-1-yl)phenyl)amino)-1,3,5-triazin-2-yl)benzonitrile]
18 | 27 | 315 | 7 | – | N#Cc1cc(-c2ncnc(Nc3ccc(N4CCN(C5COC5)CC4)cc3)n2)ccc1N1CC[C@H](O)C1 [Example 203, (S)-2-(3-hydroxypyrrolidin-1-yl)-5-(4-((4-(4-(oxetan-3-yl)piperazin-1-yl)phenyl)amino)-1,3,5-triazin-2-yl)benzonitrile]
19 | 22 | 241 | 11 | – | N#Cc1cc(-c2ncnc(Nc3ccc(N4CCN(C5COC5)CC4)cc3)n2)ccc1OC1CCCN(C(=O)CO)CC1 (stereo not drawn) [Example 97, 2-((1-(2-hydroxyacetyl)azepan-4-yl)oxy)-5-(4-((4-(4-(oxetan-3-yl)piperazin-1-yl)phenyl)amino)-1,3,5-triazin-2-yl)benzonitrile]
20 | 3 | 168 | 1 | – | C[C@H](O)C(=O)N1CCC(Oc2ccc(-c3ncnc(Nc4ccc(N5CCN(C6COC6)CC5)cc4)n3)cc2C#N)C(F)(F)C1 (stereo partly drawn) [Example 154, 2-((3,3-difluoro-1-((S)-2-hydroxypropanoyl)piperidin-4-yl)oxy)-5-(4-((4-(4-(oxetan-3-yl)piperazin-1-yl)phenyl)amino)-1,3,5-triazin-2-yl)benzonitrile]
21 | 132 | 546 | 31 | – | C[C@@H](CO)C(=O)N1CC[C@H](Oc2ccc(-c3ncnc(Nc4ccc(N5CCN(C6COC6)CC5)cc4)n3)cc2C#N)[C@H](F)C1 [Example 123, 2-(((3R,4S)-3-fluoro-1-((S)-3-hydroxy-2-methylpropanoyl)piperidin-4-yl)oxy)-5-(4-((4-(4-(oxetan-3-yl)piperazin-1-yl)phenyl)amino)-1,3,5-triazin-2-yl)benzonitrile]
22 | 6 | 200 | 4 | – | N#Cc1cc(-c2ncnc(Nc3ccc(N4CCN(C5COC5)CC4)cc3)n2)ccc1O[C@@H]1CCC(=O)NC1 [Example 199, (R)-5-(4-((4-(4-(oxetan-3-yl)piperazin-1-yl)phenyl)amino)-1,3,5-triazin-2-yl)-2-((6-oxopiperidin-3-yl)oxy)benzonitrile]
23 | – | 60 | 80 | 156 | CN1CC(Oc2ccc(-c3ncnc(Nc4ccc(N5CCN(C6COC6)CC5)cc4)n3)cc2C#N)CNC1=O (stereo not drawn) [Example 421, 2-((1-methyl-2-oxohexahydropyrimidin-5-yl)oxy)-5-(4-((4-(4-(oxetan-3-yl)piperazin-1-yl)phenyl)amino)-1,3,5-triazin-2-yl)benzonitrile]
24 | 197 | > 1000 | 45 | – | N#Cc1cc(-c2ncnc(Nc3ccc(N4CCN(C5COC5)CC4)cc3)n2)ccc1O[C@@H]1CCN(C(=O)C2COC2)C1 [Example 92, (R)-5-(4-((4-(4-(oxetan-3-yl)piperazin-1-yl)phenyl)amino)-1,3,5-triazin-2-yl)-2-((1-(oxetane-3-carbonyl)pyrrolidin-3-yl)oxy)benzonitrile]
